Values quoted from earlier work in US4318847A, “Physiologically active tetrapeptides” (Zaidan Hojin Biseibutsu Kagaku Kenkyu Kai, priority 1979, dated 1982).
*1 amine or outer side, *2 acyl side, *3 side chain or, on linkers, in order; H or OH if unused. Where a SMILES comes first, the peptide text is derived from it. [ ]: non-standard residue; d: D form. The star is where a group is joined. Sta = CC(C)C[C@H](N)[C@@H](O)CC(=O)O; Isovaleryl = CC(C)CC(=O)*; CO = O=C([*:1])[*:2]

Tests used:
aminopeptidase B = aminopeptidase B (Homo sapiens, UniProt Q9H4A4); details: prior art, U.S. Pat. No. 4,029,547; cited from earlier work
aminopeptidase B, sequence (Q9H4A4 whole entry, species assumed): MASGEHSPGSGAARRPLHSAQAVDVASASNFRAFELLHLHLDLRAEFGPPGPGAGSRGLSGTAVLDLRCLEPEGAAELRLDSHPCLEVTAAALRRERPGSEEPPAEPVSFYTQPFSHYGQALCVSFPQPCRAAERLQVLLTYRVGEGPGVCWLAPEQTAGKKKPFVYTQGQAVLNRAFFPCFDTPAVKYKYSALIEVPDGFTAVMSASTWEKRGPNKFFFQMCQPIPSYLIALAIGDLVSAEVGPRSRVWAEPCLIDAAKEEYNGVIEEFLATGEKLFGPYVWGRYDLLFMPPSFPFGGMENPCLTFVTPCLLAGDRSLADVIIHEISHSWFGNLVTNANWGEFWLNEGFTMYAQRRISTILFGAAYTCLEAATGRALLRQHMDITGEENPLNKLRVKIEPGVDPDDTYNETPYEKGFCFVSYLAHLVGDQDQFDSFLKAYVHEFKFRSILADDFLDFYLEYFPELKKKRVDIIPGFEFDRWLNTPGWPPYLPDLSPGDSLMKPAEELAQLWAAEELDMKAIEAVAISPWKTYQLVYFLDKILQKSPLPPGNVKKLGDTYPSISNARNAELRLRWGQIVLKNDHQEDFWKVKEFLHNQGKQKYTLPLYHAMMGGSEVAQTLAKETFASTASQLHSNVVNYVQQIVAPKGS

aminopeptidase A = aminopeptidase A (Homo sapiens, UniProt Q07075); details: prior art; cited from earlier work
aminopeptidase A, sequence (Q07075 whole entry, species assumed): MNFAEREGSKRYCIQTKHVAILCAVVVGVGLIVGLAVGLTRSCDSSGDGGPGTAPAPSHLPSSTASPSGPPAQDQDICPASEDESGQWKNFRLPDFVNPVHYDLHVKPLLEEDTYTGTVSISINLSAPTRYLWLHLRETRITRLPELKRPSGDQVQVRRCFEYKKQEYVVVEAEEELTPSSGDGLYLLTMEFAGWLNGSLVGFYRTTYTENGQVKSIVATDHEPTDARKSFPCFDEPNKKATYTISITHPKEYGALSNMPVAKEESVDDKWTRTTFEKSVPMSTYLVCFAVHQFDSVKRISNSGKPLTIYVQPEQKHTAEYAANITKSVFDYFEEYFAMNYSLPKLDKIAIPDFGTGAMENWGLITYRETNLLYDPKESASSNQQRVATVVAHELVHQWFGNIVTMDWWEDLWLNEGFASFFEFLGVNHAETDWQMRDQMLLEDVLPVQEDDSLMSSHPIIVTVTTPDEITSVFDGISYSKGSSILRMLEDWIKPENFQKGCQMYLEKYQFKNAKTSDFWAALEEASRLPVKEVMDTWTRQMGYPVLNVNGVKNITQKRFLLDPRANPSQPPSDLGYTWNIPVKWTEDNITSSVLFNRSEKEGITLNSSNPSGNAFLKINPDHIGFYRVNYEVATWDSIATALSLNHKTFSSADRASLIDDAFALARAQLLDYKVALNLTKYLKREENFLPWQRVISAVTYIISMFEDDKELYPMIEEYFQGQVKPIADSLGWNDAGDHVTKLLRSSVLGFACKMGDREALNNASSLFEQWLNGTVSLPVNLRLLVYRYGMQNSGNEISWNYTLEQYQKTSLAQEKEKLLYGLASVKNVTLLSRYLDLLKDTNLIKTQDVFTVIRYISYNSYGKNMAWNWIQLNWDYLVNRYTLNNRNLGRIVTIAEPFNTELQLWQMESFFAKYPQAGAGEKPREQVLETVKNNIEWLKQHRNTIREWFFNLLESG

leucine aminopeptidase = leucine aminopeptidase (Homo sapiens, UniProt P28838); details: prior art, U.S. Pat. No. 4,029,547; cited from earlier work
leucine aminopeptidase, sequence (P28838 whole entry): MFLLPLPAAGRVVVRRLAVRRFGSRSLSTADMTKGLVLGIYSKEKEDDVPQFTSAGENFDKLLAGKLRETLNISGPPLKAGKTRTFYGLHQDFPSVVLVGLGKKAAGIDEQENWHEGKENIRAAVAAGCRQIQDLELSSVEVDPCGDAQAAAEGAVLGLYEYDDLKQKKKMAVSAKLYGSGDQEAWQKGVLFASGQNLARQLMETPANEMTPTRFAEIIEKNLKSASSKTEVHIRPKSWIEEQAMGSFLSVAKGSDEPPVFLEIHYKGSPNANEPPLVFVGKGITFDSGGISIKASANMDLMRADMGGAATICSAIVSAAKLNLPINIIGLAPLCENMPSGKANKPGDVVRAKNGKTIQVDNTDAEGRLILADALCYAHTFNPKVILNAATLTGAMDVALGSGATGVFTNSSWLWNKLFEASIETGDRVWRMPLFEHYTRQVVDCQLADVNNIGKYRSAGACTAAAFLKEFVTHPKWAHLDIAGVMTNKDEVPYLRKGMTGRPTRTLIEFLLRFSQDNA

papain = biological target: T1, papain (Carica papaya, UniProt P00784); details: prior art; cited from earlier work
T1 sequence (P00784 134-345): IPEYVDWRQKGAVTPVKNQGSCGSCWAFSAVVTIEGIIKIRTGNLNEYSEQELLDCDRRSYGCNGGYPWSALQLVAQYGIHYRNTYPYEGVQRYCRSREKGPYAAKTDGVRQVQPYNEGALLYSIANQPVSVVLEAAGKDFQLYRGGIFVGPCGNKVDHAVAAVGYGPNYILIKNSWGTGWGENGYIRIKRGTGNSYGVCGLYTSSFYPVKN

trypsin = biological target: T2, trypsin (Bos taurus, UniProt P00760); details: prior art; cited from earlier work
T2 construct: gene PRSS1
T2 sequence (P00760 24-246): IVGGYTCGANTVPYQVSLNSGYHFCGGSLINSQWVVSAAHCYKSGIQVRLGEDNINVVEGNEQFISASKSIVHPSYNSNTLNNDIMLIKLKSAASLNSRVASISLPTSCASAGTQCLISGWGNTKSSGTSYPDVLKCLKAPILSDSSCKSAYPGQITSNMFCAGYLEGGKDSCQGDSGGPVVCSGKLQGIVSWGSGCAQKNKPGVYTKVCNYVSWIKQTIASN

pepsin = pepsin (Homo sapiens, UniProt P0DJD8); details: prior art; cited from earlier work
pepsin, sequence (P0DJD8 63-388): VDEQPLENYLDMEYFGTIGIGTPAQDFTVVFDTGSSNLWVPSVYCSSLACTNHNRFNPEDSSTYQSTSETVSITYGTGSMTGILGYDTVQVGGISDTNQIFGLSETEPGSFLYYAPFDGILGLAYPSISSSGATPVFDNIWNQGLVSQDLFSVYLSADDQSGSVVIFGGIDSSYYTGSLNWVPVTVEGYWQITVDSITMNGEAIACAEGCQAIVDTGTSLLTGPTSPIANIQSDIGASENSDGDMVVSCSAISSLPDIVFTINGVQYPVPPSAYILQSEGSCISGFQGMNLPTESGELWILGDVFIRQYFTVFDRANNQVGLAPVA

CC(C)C[C@H](NC(=O)[C@@H](O)[C@H](N)Cc1ccccc1)C(=O)O [Bestatin, [(2S,3R)-3-amino-2-hydroxy-4-phenylbutanoyl]-L-leucine]
inhibition of aminopeptidase B (aminopeptidase B): inhibits
inhibition of aminopeptidase A (aminopeptidase A): does not have any inhibitory effect
inhibition of leucine aminopeptidase (leucine aminopeptidase): inhibits

CC(C)[C@H](NC(=O)[C@H](CCCNC(=N)N)NC(=O)N[C@@H](Cc1ccccc1)C(=O)O)C(=O)N[C@H](C=O)CCCNC(=N)N [antipain] ({Phe-CO}-Arg-Val-Arg-aldehyde)
inhibition of papain (papain): inhibit

CC(=O)N[C@@H](CC(C)C)C(=O)N[C@@H](CC(C)C)C(=O)N[C@H](C=O)CCCNC(=N)N [leupeptin]
inhibition of trypsin (trypsin): inhibit

CC(C)CC(=O)N[C@H](C(=O)N[C@H](C(=O)N[C@@H](CC(C)C)[C@@H](O)CC(=O)N[C@@H](C)C(=O)N[C@@H](CC(C)C)[C@@H](O)CC(=O)O)C(C)C)C(C)C [pepstatin] (Isovaleryl-VV[Sta]A[Sta]-OH)
inhibition of pepsin (pepsin): inhibit
